Results published in publication PMC9607427, “Novel 7-Chloro-(4-thioalkylquinoline) Derivatives: Synthesis and Antiproliferative Activity through Inducing Apoptosis and DNA/RNA Damage” (Pharmaceuticals, 2022).
Read-outs that look alike come from different tables or passages of the source.

Tests used:
[1] = test system: HCT116 (colorectal carcinoma); assay: Cytotoxic MTS assay, HCT116; format: cell-based, human
Experimental: (§1) In vitro cytotoxic activity of final compounds 5–82 was evaluated after 3 days of incubation against eight cell lines derived from human solid tumors including lung (A549 cells) and colon (HCT116 and HCT116p53−/−) carcinomas, as well as leukemia cell lines (CCRF-CEM, CEM-DNR, K562, and K562-TAX) and osteosarcoma (U2OS cells). For comparison, non-malignant BJ and MRC-5 fibroblasts, and BJLD and MCR-5LD fibroblasts doxorubicin-resistant cell lines were used. Concentrations inhibiting the cell growth by 50% (IC50) were determined using a quantitative metabolic staining with 3-(4,5-dimethylthiazol-2yl)-5-(3-carboxymethoxyphenyl)-2-(4-sulfophenyl)-2H-tetrazolium (MTS) and are summarized in (Table 3).
(§2) Cytotoxic activity was determined by MTS assay following 72 h of incubation. IC50 is the lowest concentration that kills 50% of cells. The standard deviation in cytotoxicity assays is typically up to 20% of the average value. […] The tested cell lines: A549 (lung adenocarcinoma), BJ (noncancerous human fibroblasts from foreskin), BJLD (human lung fibroblast doxorubicin-resistant), CCRF-CEM (childhood T cell acute lymphoblastic leukemia), a daunorubicin-resistant subline of CCRF-CEM cells (CEM-DNR bulk), HCT116 (colorectal carcinoma), HCT116p53−/− (HCT116 with deleted p53 gene), K562 (chronic myeloid leukemia), K562-TAX (chronic myeloid leukemia paclitaxel-resistant subline), MRC-5 (noncancerous human lung fibroblasts), MRC-5LD (noncancerous human lung fibroblasts doxorubicin-resistant), and U2OS (osteosarcoma).
(§3) All cell lines were purchased from the American Tissue Culture Collection (ATCC). The A549 cell line is lung adenocarcinoma. MRC-5 and BJ cell lines were used as a non-tumor control and represent human fibroblasts. (MRC-5 LD and BJLD) are doxorubicin-resistant human lung fibroblast cell lines. The CCRF-CEM line is derived from T lymphoblastic leukemia, evincing high chemosensitivity, whereas K562 represent cells from an […] patient sample with bcr-abl translocation. The daunorubicin-resistant subline of CCRF-CEM cells (CEM-DNR bulk) and paclitaxel-resistant subline K562-TAX were selected in our laboratory by the cultivation of maternal cell lines in increasing concentrations of daunorubicin or paclitaxel, respectively. The CEM-DNR bulk cells overexpress MRP-1 and P-glycoprotein protein, whereas K562-TAX cells overexpress P-glycoprotein only. Both proteins belong to the family of ABC transporters and are involved in the primary and/or acquired multidrug-resistance phenomenon. The U2OS cell line is derived from osteosarcoma, HCT116 is a colorectal tumor cell line and its p53 gene knock-down counterpart (HCT116p53−/−, Horizon Discovery Ltd., Cambridge, UK) is a model of human cancers with p53 mutation frequently associated with poor prognosis. The cells were maintained in nunc/corning 80 cm^2 plastic tissue culture flasks and cultured in a cell culture medium according to ATCC or Horizon recommendations (DMEM/RPMI 1640 with 5 g/L glucose, 2 mM glutamine, 100 U/mL penicillin, […], 10% fetal calf serum, and NaHCO3).
(§4) The activity of compounds was determined using a standard 3-(4,5-dimethylthiazol-2-yl)-5-(3-carboxymethoxyphenyl)-2-(4-sulfophenyl)-2H-tetrazolium (MTS) and it was performed at the Institute of Molecular and Translational Medicine by a robotic platform (High-ResBiosolutions). Cell suspensions were prepared and diluted according to the particular cell type and the expected target cell density (25,000–35,000 cells/mL based on cell growth characteristics). Cells were added by automatic pipettor (30 µL) into 384-well microtiter plates. All tested compounds were dissolved in 100% DMSO and four-fold dilutions of the intended test concentration were added in 0.15 µL aliquots at time zero to the microtiter plate wells by the echo acoustic non-contact liquid handler Echo550 (Labcyte). […]

[2] = test system: CEM-DNR bulk (daunorubicin-resistant subline of CCRF-CEM cells); assay: Cytotoxic MTS assay, CEM-DNR; format: cell-based, human
Experimental: as §1, §2, §3, §4

[3] = test system: eight human cancer and 4 non-tumor cell lines; assay: Cytotoxic MTS assay, whole panel of tested cell lines; format: cell-based; conditions: for Selectivity for leukemic and colorectal cancer cells compared to MRC-5: leukemic and colorectal (with and without p53 deletion) cancer cells vs MRC-5; for Selectivity for cancer cells compared against BJ and MRC-5 cells: colon, leukemia, lung and osteosarcoma cancer cell lines vs BJ and MRC-5
Experimental: as §1, §2, §3, §4

[4] = test system: BJLD (human lung fibroblast doxorubicin-resistant); assay: Cytotoxic MTS assay, BJLD; format: cell-based
Experimental: as §1, §2, §3, §4

[5] = test system: K562 (chronic myeloid leukemia); assay: Cytotoxic MTS assay, K562; format: cell-based, human
Experimental: as §1, §2, §3, §4

[6] = test system: CCRF-CEM (childhood T cell acute lymphoblastic leukemia); assay: Cytotoxic MTS assay, CCRF-CEM; format: cell-based, human
Experimental: as §1, §2, §3, §4

[7] = test system: MRC-5 (noncancerous human lung fibroblasts); assay: Cytotoxic MTS assay, MRC-5; format: cell-based
Experimental: as §1, §2, §3, §4

[8] = test system: A549 (lung adenocarcinoma); assay: Cytotoxic MTS assay, A549; format: cell-based, human
Experimental: as §1, §2, §3, §4

[9] = test system: BJ (noncancerous human fibroblasts from foreskin); assay: Cytotoxic MTS assay, BJ; format: cell-based
Experimental: as §1, §2, §3, §4

[10] = test system: U2OS (osteosarcoma); assay: Cytotoxic MTS assay, U2OS; format: cell-based, human
Experimental: as §1, §2, §3, §4

[11] = test system: K562-TAX (chronic myeloid leukemia paclitaxel-resistant subline); assay: Cytotoxic MTS assay, K562-TAX; format: cell-based, human
Experimental: as §1, §2, §3, §4

[12] = test system: MRC-5LD (noncancerous human lung fibroblasts doxorubicin-resistant); assay: Cytotoxic MTS assay, MRC-5LD; format: cell-based
Experimental: as §1, §2, §3, §4

[13] = Cytotoxic MTS assay, whole panel of tested cell lines; format: cell-based, human; conditions: human; MTS, 72 h of incubation, all tested cell lines; read-out: Cytotoxic activity IC50, tested cell lines (considered inactive)
Experimental: as §1, §2, §3, §4

[14] = test system: HCT116p53−/− (HCT116 with deleted p53 gene); assay: Cytotoxic MTS assay, HCT116p53−/−; format: cell-based, human
Experimental: as §1, §2, §3, §4

[15] = Cytotoxic MTS assay, BJLD; format: cell-based, human; conditions: human, BJLD cells (fibroblasts, doxorubicin-resistant); MTS, 72 h of incubation
Experimental: as §1, §2, §3, §4

[16] = Cytotoxic MTS assay, MRC-5; format: cell-based, human; conditions: human, MRC-5 cells (noncancerous lung fibroblasts); MTS, 72 h of incubation
Experimental: as §1, §2, §3, §4

[17] = Cytotoxic MTS assay, BJ; format: cell-based, human; conditions: human, BJ cells (noncancerous foreskin fibroblasts); MTS, 72 h of incubation
Experimental: as §1, §2, §3, §4

[18] = Cytotoxic MTS assay, MRC-5LD; format: cell-based, human; conditions: human; MTS, 72 h of incubation; read-out: Cytotoxic activity IC50, MRC5-LD
Experimental: as §1, §2, §3, §4

SMILES | IC50 [1] | IC50 [2] | IC50 [4] | IC50 [5] | IC50 [6] | IC50 [7] | IC50 [8] | IC50 [9] | IC50 [10] | IC50 [11] | IC50 [12] | IC50 at 72 h [13] | also measured
COc1cccc(C(=O)OCCCS(=O)(=O)c2cc[n+]([O-])c3cc(Cl)ccc23)c1OC [Compound 74, 3-[(N-Oxide 7-chloroquinolin-4-yl)sulfonyl]propyl-2,3-dimethoxybenzoate] | 3.23 µM | 5.58 µM | 10.5 µM | 2.71 µM | 1410 nM | 20.4 µM | 5.35 µM | 14.9 µM | 5.4 µM | 4.91 µM | 16.2 µM | – | Selectivity for leukemic and colorectal cancer cells compared to MRC-5 [3]: good selectivity
COc1ccccc1C(=O)OCCC[S+]([O-])c1ccnc2cc(Cl)ccc12 (stereo not drawn) [Compound 58, 3-[(7-Chloroquinolin-4-yl)sulfinyl]propyl-2-methoxybenzoate] | – | – | – | – | – | – | – | – | – | – | – | > 50 µM | –
COc1ccc(C(=O)OCCCS(=O)(=O)c2cc[n+]([O-])c3cc(Cl)ccc23)cc1 [Compound 73, 3-[(N-Oxide 7-chloroquinolin-4-yl)sulfonyl]propyl-4-methoxybenzoate] | 1.99 µM | 4.7 µM | 10.7 µM | 2.2 µM | 2180 nM | 21.9 µM | 5.44 µM | 12.4 µM | 5.75 µM | 4.62 µM | 19 µM | – | Selectivity for leukemic and colorectal cancer cells compared to MRC-5 [3]: good selectivity; IC50 [14]: 2.24 µM
CC(C)(C)c1ccc(C(=O)OCC[S+]([O-])c2ccnc3cc(Cl)ccc23)cc1 (stereo not drawn) [Compound 52, 2-[(7-Chloroquinolin-4-yl)sulfinyl]ethyl-4-tert-butylbenzoate] | – | – | – | – | – | – | – | – | – | – | – | > 50 µM | melting point: 106 °C
COc1ccc(C(=O)OCCCS(=O)(=O)c2cc[n+]([O-])c3cc(Cl)ccc23)cc1[N+](=O)[O-] [Compound 79, 3-[(N-Oxide 7-chloroquinolin-4-yl)sulfonyl]propyl-4-methoxy-3-nitrobenzoate] | 3.81 µM | 4.49 µM | 12 µM | 6.09 µM | 1050 nM | 20.6 µM | 5.79 µM | 19 µM | 4.95 µM | 3.73 µM | 13.8 µM | – | Selectivity for cancer cells compared against BJ and MRC-5 cells [3]: good selectivity; Cancer cell selectivity for A549 cells compared to BJ and MRC-5 cell lines ([8]; A549 vs BJ and MRC-5): moderate cancer cell selectivity; IC50 [14]: 4.98 µM
O=C(OCC[S+]([O-])c1ccnc2cc(Cl)ccc12)c1ccc(C(F)(F)F)cc1 (stereo not drawn) [Compound 51, 2-[(7-Chloroquinolin-4-yl)sulfinyl]ethyl-4-(trifluoromethyl)benzoate] | – | – | – | – | – | – | – | – | – | – | – | > 50 µM | melting point: 148 to 150 °C
Cc1ccc(C)c(C(=O)OCCS(=O)(=O)c2cc[n+]([O-])c3cc(Cl)ccc23)c1 [Compound 71, 2-[(N-Oxide 7-chloroquinolin-4-yl)sulfonyl]ethyl-,5-dimethylbenzoate] | – | – | – | – | – | – | – | – | – | – | – | – | IC50 [3]: > 50 µM
COc1cc(OC)c(C(=O)OCCC[S+]([O-])c2ccnc3cc(Cl)ccc23)cc1OC (stereo not drawn) [Compound 56, 3-[(7-Chloroquinolin-4-yl)sulfinyl]propyl-2,4,5-trimethoxybenzoate] | – | – | – | – | – | – | – | – | – | – | – | > 50 µM | –
Cc1cc(C)cc(C(=O)OCCCS(=O)(=O)c2cc[n+]([O-])c3cc(Cl)ccc23)c1 [Compound 81, 3-[(N-Oxide 7-chloroquinolin-4-yl)sulfonyl]propyl-3,5-dimethylbenzoate] | 3.46 µM | 6.63 µM | 25.4 µM | 3.78 µM | 1200 nM | 46.7 µM | 5.32 µM | 32.5 µM | 5.67 µM | 6.26 µM | 21.9 µM | – | Selectivity for cancer cells compared against BJ and MRC-5 cells [3]: most pronounced selectivity; IC50 [14]: 4.76 µM
COc1cc(OC)cc(C(=O)OCCC[S+]([O-])c2ccnc3cc(Cl)ccc23)c1 (stereo not drawn) [Compound 55, 3-[(7-Chloroquinolin-4-yl)sulfinyl]propyl-,5-dimethoxybenzoate] | – | – | – | – | – | – | – | – | – | – | – | – | IC50 [3]: > 50 µM
Cc1ccc([N+](=O)[O-])c(C(=O)OCCC[S+]([O-])c2ccnc3cc(Cl)ccc23)c1 (stereo not drawn) [Compound 60, 3-[(7-Chloroquinolin-4-yl)sulfinyl]propyl-5-methyl-2-nitrobenzoate] | – | – | – | – | – | – | – | – | – | – | – | – | IC50 ([1]; Homo sapiens, HCT-116, MTS, 72 h of incubation, read-out: Cytotoxic activity IC50, HCT116): 7.77 µM; IC50 ([2]; Homo sapiens, CEM-DNR, MTS, 72 h of incubation, read-out: Cytotoxic activity IC50, CEM-DNR): 7.27 µM; IC50 at 72 h [15]: 18.1 µM; IC50 ([5]; Homo sapiens, K562, MTS, 72 h of incubation, read-out: Cytotoxic activity IC50, K562): 8.86 µM; IC50 ([6]; Homo sapiens, CCRF-CEM, MTS, 72 h of incubation, read-out: Cytotoxic activity IC50, CCRF-CEM): 1130 nM; IC50 at 72 h [16]: 29.4 µM; IC50 ([8]; Homo sapiens, A549, MTS, 72 h of incubation, read-out: Cytotoxic activity IC50, A549): 9.55 µM; IC50 at 72 h [17]: 29 µM; IC50 ([10]; Homo sapiens, U2OS, MTS, 72 h of incubation, read-out: Cytotoxic activity IC50, U2OS): 5.81 µM; IC50 ([11]; Homo sapiens, K562-Tax, MTS, 72 h of incubation, read-out: Cytotoxic activity IC50, K562-TAX): 4.26 µM; IC50 ([14]; Homo sapiens, HCT-116, MTS, 72 h of incubation, read-out: Cytotoxic activity IC50, HCT116-p53): 6.06 µM; IC50 at 72 h [18]: 19.8 µM
